Measured values from article PMC8500670, “A selective WDR5 degrader inhibits acute myeloid leukemia in patient-derived mouse models” (Science translational medicine, 2021).

Columns and labels:
Test in all cases: biochemical
Design in all cases: GPCR, ion channel and transporter panel, per cent inhibition of binding, mean of four
Alpha1A = target: T1, Alpha1A (Homo sapiens, UniProt P35348)
T1 construct: gene ADRA1A
Procedure: (§1) We next assessed selectivity of MS67 against 22 protein methyltransferases (table S2) and a broad panel of common drug targets including 45 kinases (table S3) and 44 G protein–coupled receptors (GPCR), ion channels, and transporters (table S4). […] We subsequently determined that MS67 had moderate binding affinity (Ki = 1.0 ± 0.8 μM) to Sigma 2 receptor (fig. S10).

NET = target: T2, NET (Homo sapiens, UniProt P23975)
T2 construct: gene SLC6A2
Procedure: as §1

5-HT7A = target: T3, 5-HT7A (Homo sapiens, UniProt P34969)
T3 construct: gene HTR7; isoform 7A
Procedure: as §1

D1 = target: T4, D1 (Homo sapiens, UniProt P21728)
T4 construct: gene DRD1
Procedure: as §1

5-HT1A = target: T5, 5-HT1A (Homo sapiens, UniProt P08908)
T5 construct: gene HTR1A
Procedure: as §1

D5 = target: T6, D5 (Homo sapiens, UniProt P21918)
T6 construct: gene DRD5
Procedure: as §1

SERT = target: T7, SERT (Homo sapiens, UniProt P31645)
T7 construct: gene SLC6A4
Procedure: as §1

5-HT2A = target: T8, 5-HT2A (Homo sapiens, UniProt P28223)
T8 construct: gene HTR2A
Procedure: as §1

H2 = target: T9, H2 (Homo sapiens, UniProt P25021)
T9 construct: gene HRH2
Procedure: as §1

Alpha2C = target: T10, Alpha2C (Homo sapiens, UniProt P18825)
T10 construct: gene ADRA2C
Procedure: as §1

Alpha1D = target: T11, Alpha1D (Homo sapiens, UniProt P25100)
T11 construct: gene ADRA1D
Procedure: as §1

5-HT1D = target: T12, 5-HT1D (Homo sapiens, UniProt P28221)
T12 construct: gene HTR1D
Procedure: as §1

Sigma 2 = target: T13, Sigma 2 (Homo sapiens, UniProt Q5BJF2)
T13 construct: gene TMEM97
Procedure: as §1

MOR = target: T14, MOR (Homo sapiens, UniProt P35372)
T14 construct: gene OPRM1
Procedure: as §1

Alpha1B = target: T15, Alpha1B (Homo sapiens, UniProt P35368)
T15 construct: gene ADRA1B
Procedure: as §1

Beta1 = target: T16, Beta1 (Homo sapiens, UniProt P08588)
T16 construct: gene ADRB1
Procedure: as §1

5-HT3 = target: T17, 5-HT3 (Homo sapiens, UniProt P46098)
T17 construct: gene HTR3A
Procedure: as §1

Alpha2B = target: T18, Alpha2B (Homo sapiens, UniProt P18089)
T18 construct: gene ADRA2B
Procedure: as §1

M1 = target: T19, M1 (Homo sapiens, UniProt P11229)
T19 construct: gene CHRM1
Procedure: as §1

D2 = target: T20, D2 (Homo sapiens, UniProt P14416)
T20 construct: gene DRD2
Procedure: as §1

M5 = target: T21, M5 (Homo sapiens, UniProt P08912)
T21 construct: gene CHRM5
Procedure: as §1

Alpha2A = target: T22, Alpha2A (Homo sapiens, UniProt P08913)
T22 construct: gene ADRA2A
Procedure: as §1

DAT = target: T23, DAT (Homo sapiens, UniProt Q01959)
T23 construct: gene SLC6A3
Procedure: as §1

M4 = target: T24, M4 (Homo sapiens, UniProt P08173)
T24 construct: gene CHRM4
Procedure: as §1

5-HT1B = target: T25, 5-HT1B (Homo sapiens, UniProt P28222)
T25 construct: gene HTR1B
Procedure: as §1

5-HT2B = target: T26, 5-HT2B (Homo sapiens, UniProt P41595)
T26 construct: gene HTR2B
Procedure: as §1

T25 sequence (P28222 whole entry): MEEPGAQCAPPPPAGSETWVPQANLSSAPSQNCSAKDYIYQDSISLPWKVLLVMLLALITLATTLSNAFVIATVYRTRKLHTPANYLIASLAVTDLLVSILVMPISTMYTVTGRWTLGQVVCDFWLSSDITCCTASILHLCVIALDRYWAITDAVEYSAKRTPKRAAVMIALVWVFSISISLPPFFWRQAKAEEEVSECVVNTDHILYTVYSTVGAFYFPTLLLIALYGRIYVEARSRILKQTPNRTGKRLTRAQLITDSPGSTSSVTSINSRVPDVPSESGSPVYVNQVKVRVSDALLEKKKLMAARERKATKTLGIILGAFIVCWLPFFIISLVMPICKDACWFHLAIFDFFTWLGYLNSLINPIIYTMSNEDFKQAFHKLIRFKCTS
T6 sequence (P21918 whole entry): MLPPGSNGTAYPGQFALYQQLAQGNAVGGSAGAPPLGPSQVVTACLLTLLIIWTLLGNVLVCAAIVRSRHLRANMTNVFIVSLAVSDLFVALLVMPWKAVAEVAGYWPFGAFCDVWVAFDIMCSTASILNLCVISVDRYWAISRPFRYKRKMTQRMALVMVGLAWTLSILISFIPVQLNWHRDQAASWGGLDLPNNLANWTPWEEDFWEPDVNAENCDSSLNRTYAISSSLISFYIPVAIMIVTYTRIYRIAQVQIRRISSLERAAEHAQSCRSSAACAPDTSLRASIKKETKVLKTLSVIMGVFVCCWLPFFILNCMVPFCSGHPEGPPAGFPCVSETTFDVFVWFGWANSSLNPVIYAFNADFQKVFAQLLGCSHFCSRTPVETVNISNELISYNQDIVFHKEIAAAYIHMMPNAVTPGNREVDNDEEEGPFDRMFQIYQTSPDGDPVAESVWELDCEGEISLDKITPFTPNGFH
T11 sequence (P25100 whole entry): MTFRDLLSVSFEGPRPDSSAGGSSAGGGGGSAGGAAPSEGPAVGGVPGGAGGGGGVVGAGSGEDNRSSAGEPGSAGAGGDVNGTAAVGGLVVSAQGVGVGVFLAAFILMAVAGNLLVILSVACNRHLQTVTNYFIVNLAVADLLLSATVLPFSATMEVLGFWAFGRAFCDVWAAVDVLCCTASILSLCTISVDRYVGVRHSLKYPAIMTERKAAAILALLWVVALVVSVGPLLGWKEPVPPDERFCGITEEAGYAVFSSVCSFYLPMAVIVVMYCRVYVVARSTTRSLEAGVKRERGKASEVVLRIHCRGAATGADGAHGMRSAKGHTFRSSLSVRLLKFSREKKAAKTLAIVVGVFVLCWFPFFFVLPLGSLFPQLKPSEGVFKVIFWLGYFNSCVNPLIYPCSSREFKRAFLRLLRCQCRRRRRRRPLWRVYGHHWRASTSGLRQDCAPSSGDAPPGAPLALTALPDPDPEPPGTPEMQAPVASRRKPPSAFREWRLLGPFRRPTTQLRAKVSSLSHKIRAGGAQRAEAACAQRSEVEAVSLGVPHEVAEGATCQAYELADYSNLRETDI
T18 sequence (P18089 whole entry): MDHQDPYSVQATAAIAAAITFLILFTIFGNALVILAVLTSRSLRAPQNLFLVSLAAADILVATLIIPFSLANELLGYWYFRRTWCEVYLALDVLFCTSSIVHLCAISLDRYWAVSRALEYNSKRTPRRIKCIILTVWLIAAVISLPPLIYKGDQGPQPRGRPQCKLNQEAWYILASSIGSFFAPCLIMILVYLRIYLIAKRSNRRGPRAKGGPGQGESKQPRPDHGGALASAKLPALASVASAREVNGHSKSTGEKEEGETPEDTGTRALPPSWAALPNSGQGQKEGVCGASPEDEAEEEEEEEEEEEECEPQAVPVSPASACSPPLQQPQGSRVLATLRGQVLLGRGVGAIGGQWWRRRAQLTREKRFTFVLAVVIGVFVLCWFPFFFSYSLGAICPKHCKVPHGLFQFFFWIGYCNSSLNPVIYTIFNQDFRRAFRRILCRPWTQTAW
T3 sequence (P34969 whole entry, canonical isoform): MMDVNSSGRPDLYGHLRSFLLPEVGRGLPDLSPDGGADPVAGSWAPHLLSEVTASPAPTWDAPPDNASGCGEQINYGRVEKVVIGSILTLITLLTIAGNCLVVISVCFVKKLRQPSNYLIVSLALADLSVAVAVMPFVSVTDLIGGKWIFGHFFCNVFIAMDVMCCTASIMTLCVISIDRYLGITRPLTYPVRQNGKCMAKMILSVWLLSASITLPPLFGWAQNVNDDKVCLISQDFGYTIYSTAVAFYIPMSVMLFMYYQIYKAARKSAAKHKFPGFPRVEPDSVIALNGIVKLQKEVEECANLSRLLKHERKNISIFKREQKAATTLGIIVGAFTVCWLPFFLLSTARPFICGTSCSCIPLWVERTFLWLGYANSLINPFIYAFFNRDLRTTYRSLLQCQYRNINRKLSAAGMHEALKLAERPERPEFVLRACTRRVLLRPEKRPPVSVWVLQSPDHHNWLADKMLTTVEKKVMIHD
T7 sequence (P31645 whole entry): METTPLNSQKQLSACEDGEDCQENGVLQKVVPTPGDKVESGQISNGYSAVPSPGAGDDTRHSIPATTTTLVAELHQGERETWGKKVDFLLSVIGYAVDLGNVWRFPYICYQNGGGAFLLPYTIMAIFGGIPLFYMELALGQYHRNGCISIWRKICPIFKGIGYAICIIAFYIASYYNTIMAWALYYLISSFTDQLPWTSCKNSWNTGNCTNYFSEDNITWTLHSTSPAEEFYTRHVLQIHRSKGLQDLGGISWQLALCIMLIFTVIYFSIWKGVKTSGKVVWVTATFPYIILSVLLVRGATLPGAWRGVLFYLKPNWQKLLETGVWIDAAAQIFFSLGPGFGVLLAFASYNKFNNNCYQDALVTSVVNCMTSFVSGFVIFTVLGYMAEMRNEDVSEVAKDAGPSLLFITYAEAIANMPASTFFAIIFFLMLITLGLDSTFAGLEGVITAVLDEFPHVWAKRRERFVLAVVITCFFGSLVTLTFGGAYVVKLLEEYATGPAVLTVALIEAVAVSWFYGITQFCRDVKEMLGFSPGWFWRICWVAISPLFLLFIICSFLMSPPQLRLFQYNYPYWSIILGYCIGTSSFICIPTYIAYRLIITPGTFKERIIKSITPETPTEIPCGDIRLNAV
T13 sequence (Q5BJF2 whole entry): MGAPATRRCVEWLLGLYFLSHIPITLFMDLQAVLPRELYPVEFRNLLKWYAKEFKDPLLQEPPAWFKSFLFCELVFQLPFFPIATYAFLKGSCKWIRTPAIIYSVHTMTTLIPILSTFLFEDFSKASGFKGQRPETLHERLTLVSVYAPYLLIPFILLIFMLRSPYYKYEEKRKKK
T21 sequence (P08912 whole entry): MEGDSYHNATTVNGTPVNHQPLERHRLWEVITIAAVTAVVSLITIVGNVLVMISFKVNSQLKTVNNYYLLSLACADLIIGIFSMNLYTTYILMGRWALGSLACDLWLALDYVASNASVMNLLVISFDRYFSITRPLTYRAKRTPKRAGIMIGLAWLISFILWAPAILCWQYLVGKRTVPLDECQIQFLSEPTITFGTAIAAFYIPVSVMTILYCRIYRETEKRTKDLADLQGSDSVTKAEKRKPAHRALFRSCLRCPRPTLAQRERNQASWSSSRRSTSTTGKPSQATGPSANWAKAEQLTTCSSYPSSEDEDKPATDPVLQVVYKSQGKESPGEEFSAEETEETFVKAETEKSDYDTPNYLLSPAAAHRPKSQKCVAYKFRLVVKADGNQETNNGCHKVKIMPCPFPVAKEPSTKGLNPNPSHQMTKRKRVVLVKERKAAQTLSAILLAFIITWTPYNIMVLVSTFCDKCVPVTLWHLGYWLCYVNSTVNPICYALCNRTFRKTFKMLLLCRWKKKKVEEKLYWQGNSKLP
T15 sequence (P35368 whole entry): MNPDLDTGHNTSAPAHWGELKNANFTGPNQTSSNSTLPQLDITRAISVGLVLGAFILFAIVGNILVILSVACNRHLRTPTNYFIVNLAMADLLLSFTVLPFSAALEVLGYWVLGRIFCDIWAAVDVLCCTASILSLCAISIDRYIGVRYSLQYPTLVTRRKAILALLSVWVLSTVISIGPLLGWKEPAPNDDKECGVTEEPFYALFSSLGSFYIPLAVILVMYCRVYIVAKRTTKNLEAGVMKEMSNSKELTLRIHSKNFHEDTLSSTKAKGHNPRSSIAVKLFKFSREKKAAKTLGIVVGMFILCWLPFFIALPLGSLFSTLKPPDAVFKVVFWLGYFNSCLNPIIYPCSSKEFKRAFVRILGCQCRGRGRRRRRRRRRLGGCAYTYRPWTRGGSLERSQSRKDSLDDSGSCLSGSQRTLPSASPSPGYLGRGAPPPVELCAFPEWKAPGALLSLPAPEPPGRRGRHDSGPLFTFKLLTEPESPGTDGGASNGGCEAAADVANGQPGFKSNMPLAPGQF
T12 sequence (P28221 whole entry): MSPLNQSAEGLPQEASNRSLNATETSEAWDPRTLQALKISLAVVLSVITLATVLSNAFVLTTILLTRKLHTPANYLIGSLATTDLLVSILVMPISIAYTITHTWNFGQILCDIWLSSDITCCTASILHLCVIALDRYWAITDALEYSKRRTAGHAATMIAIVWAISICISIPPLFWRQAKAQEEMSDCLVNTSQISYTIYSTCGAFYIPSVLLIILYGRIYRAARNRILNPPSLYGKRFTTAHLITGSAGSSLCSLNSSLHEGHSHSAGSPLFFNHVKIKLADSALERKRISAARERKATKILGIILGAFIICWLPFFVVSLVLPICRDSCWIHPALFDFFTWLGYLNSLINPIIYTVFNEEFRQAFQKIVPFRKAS
T9 sequence (P25021 whole entry): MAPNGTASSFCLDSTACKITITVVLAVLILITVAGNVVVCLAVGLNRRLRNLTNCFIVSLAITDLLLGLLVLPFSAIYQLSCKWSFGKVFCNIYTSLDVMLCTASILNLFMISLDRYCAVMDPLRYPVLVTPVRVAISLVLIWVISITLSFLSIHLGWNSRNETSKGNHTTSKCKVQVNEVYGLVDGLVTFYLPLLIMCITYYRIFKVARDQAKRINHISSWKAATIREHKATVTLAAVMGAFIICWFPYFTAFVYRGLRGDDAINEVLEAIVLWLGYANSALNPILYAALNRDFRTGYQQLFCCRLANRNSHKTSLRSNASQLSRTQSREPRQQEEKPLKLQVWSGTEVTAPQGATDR

`Cc1ncsc1-c1ccc([C@H](C)NC(=O)[C@@H]2C[C@@H](O)CN2C(=O)[C@@H](NC(=O)CNC(=O)c2ccc(F)c(-c3ccc(N4C[C@@H](C)N(C)[C@@H](C)C4)c(NC(=O)c4c[nH]c(=O)cc4C(F)(F)F)c3)c2)C(C)(C)C)cc1` [MS67] was tested, and the inhibition at 1 µM (Alpha1A) was 24.4%, the inhibition at 1 µM (NET) was -8.91% and the inhibition at 1 µM (5-HT7A) was 12%. The inhibition at 1 µM (D1) was 18.7%, the inhibition at 1 µM (5-HT1A) was 14.3% and the inhibition at 1 µM (D5) was 22.1%. For the same compound, the inhibition at 1 µM (SERT) was 8.01%, the inhibition at 1 µM (5-HT2A) was 11% and the inhibition at 1 µM (H2) was 19.7%. It also gave an inhibition at 1 µM (Alpha2C) of 1.35%, an inhibition at 1 µM (Alpha1D) of 28.5% and an inhibition at 1 µM (5-HT1D) of 41.7%. The inhibition at 1 µM (Sigma 2) was 66.6%, the inhibition at 1 µM (MOR) was 21.7% and the inhibition at 1 µM (Alpha1B) was 27.6%. It also gave an inhibition at 1 µM (Beta1) of 16.9%, an inhibition at 1 µM (5-HT3) of 26.6% and an inhibition at 1 µM (Alpha2B) of 21.1%. It also gave an inhibition at 1 µM (M1) of 43.6%, an inhibition at 1 µM (D2) of 25.5% and an inhibition at 1 µM (M5) of 2.36%. It also gave an inhibition at 1 µM (Alpha2A) of 21.3%, an inhibition at 1 µM (DAT) of 40.8% and an inhibition at 1 µM (M4) of 30.9%. It also gave an inhibition at 1 µM (5-HT1B) of 5.37% and an inhibition at 1 µM (5-HT2B) of 9.31%.
